Assay results reported in PubChem BioAssay AID1259411 (Chemical Carcinogenesis Research Information System (CCRIS), 2018).
Calls of active or inactive are those of the source. The rule behind the calls is not given here.

System: rodent carcinogenicity bioassays, tumor incidence
Assay: CCRIS carcinogenicity studies
Procedure, shortened: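 NCI-built, expert-reviewed records of carcinogenicity and related test outcomes (mutagenicity, tumor promotion/inhibition) compiled from published and report sources, historical span 1985-2011, not updated.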

O=S(=O)(O)OCc1c2ccccc2c2ccc3cccc4ccc1c2c43
carcinogen call (Species: MOUSE, Strain/Sex: B6C3F1/MALE, Route: INTRAPERITONEAL, Dose: 0, 0.0025 UMOL/G ONCE AT 12 DAYS OF AGE (STUDY DURATION: 10 MO), Tumor Site: Type of Lesion: LIVER: HEPATOMA): active; positive | carcinogen call (Species: RAT, Strain/Sex: SPRAGUE-DAWLEY/FEMALE, Route: SUBCUTANEOUS, Dose: 0, 0.2 UMOL 3/WK FOR 20 DOSES (STUDY DURATION: 52 WK), Tumor Site: Type of Lesion: INJECTION SITE: SARCOMA): active; positive

C/C=C/c1ccc2c(c1)OCO2
carcinogen call (Species: MOUSE, Strain/Sex: B6C3F1/MALE,FEMALE, Route: GAVAGE/ORAL, Dose: 215 MG/KG FROM D 6= 28 OF LIFE THEN 517 MG/KG IN DIET, Tumor Site: Type of Lesion: LIVER): active; positive | carcinogen call (Species: RAT, Route: ORAL, Dose: 1000, 2500, 5000, 10000 MG/KG IN DIET FOR 2 YR, Dose: 1000, 2500, 5000, 10000 MG/KG IN DIET FOR 2 YR, Tumor Site: Type of Lesion: LIVER: HEPATOCELLULAR ADENOMA, CARCINOMA): active; positive

CC(=O)Nc1ccc(O)cc1
carcinogen call (Species: MOUSE, Strain/Sex: B6C3F1/FEMALE, Route: ORAL, Dose: 0, 600, 3000, 6000 PPM IN DIET FOR 103 WK (STUDY DURATION: 106 WK), Dose: 0, 600, 3000, 6000 PPM IN DIET FOR 103 WK (STUDY DURATION: 106 WK)): inactive; negative | carcinogen call (Species: MOUSE, Strain/Sex: B6C3F1/MALE, Route: ORAL, Dose: 0, 600, 3000, 6000 PPM IN DIET FOR 103 WK (STUDY DURATION: 106 WK), Dose: 0, 600, 3000, 6000 PPM IN DIET FOR 103 WK (STUDY DURATION: 106 WK)): inactive; negative | carcinogen call (Species: MOUSE, Strain/Sex: B6C3F1/MALE, Route: ORAL, Dose: 0, 5000, 10000 PPM IN DIET BEGINNING AT 6 WK OF AGE AND CONTINUING FOR 70 WK (STUDY DURATION: 72 WK), Dose: 0, 5000, 10000 PPM IN DIET BEGINNING AT 6 WK OF AGE AND CONTINUING FOR 70 WK (STUDY DURATION: 72 WK)): inactive; negative | carcinogen call (Species: MOUSE, Strain/Sex: STRAIN-IF/FEMALE, Route: ORAL, Dose: 0, 0.5, 1% IN DIET FOR 18 MO (STUDY DURATION: 18 MO), Dose: 0, 0.5, 1% IN DIET FOR 18 MO (STUDY DURATION: 18 MO), Tumor Site: Type of Lesion: LIVER: HEPATOCELLULAR CARCINOMA OR ADENOMA): active; positive | carcinogen call (Species: MOUSE, Strain/Sex: STRAIN-IF/MALE,FEMALE, Route: ORAL, Dose: 0.5, 1.0% IN DIET FOR 18 MO, Tumor Site: Type of Lesion: LIVER: HEPATOCELLULAR ADENOMA, CARCINOMA): active; positive | carcinogen call (Species: MOUSE, Strain/Sex: STRAIN-IF/MALE, Route: ORAL, Dose: 0, 0.5, 1% IN DIET FOR 18 MO (STUDY DURATION: 18 MO), Dose: 0, 0.5, 1% IN DIET FOR 18 MO (STUDY DURATION: 18 MO), Tumor Site: Type of Lesion: LIVER: HEPATOCELLULAR CARCINOMA, HEPATOCELLULAR ADENOMA OR CARCINOMA): active; positive | carcinogen call (Species: RAT, Strain/Sex: F344/FEMALE, Route: ORAL, Dose: 0, 0.65, 1.3% IN DIET FOR 104 WK (STUDY DURATION: 130 WK), Dose: 0, 0.65, 1.3% IN DIET FOR 104 WK (STUDY DURATION: 130 WK)): inactive; negative | carcinogen call (Species: RAT, Strain/Sex: F344/FEMALE, Route: ORAL, Dose: 0, 600, 3000, 6000 PPM IN DIET FOR 103 WK (STUDY DURATION: 106 WK), Dose: 0, 600, 3000, 6000 PPM IN DIET FOR 103 WK (STUDY DURATION: 106 WK), Tumor Site: Type of Lesion: MULTIPLE ORGANS: MONONUCLEAR CELL LEUKEMIA): equivocal | carcinogen call (Species: RAT, Strain/Sex: F344/MALE, Route: ORAL, Dose: 0, 0.45, 0.9% IN DIET FOR 104 WK (STUDY DURATION: 130 WK), Dose: 0, 0.45, 0.9% IN DIET FOR 104 WK (STUDY DURATION: 130 WK)): inactive; negative | carcinogen call (Species: RAT, Strain/Sex: F344/MALE, Route: ORAL, Dose: 0, 600, 3000, 6000 PPM IN DIET FOR 103 WK (STUDY DURATION: 106 WK), Dose: 0, 600, 3000, 6000 PPM IN DIET FOR 103 WK (STUDY DURATION: 106 WK)): inactive; negative

CC(=O)Nc1c(I)c(C(=O)N[C@@H](C=O)[C@@H](O)[C@H](O)[C@H](O)CO)c(I)c(N(C)C(C)=O)c1I
carcinogen call (Species: MOUSE, Strain/Sex: ICR/FEMALE, Route: INTRABRONCHIAL, Dose: 0, 75 µL ONCE ADMINISTERED TO WEANLING MICE (STUDY DURATION: LIFETIME), Tumor Site: Type of Lesion: LUNG: TUMOR): active; positive

CCOP(=S)(OCC)Oc1nc(Cl)n(C(C)C)n1
carcinogen call (Species: Mouse, Strain/Sex: Crl:CD-1(ICR)BR/Female (60/Group), Route: Oral, Dose: 0, 0.3, 1.0, 30, 300 ppm of 94.9% of isazophos in diet for 18 mo, study duration 18 mo, Dose: 0, 0.3, 1.0, 30, 300 ppm of 94.9% of isazophos in diet for 18 mo, study duration 18 mo): inactive; negative | carcinogen call (Species: Mouse, Strain/Sex: Crl:CD-1(ICR)BR/Male (60/Group), Route: Oral, Dose: 0, 0.3, 1.0, 30, 300 ppm (reduced to 250 at wk 23) ppm of 94.9% of isazophos in diet for 18 mo, study duration 18 mo, Dose: 0, 0.3, 1.0, 30, 300 ppm (reduced to 250 at wk 23) ppm of 94.9% of isazophos in diet for 18 mo, study duration 18 mo): inactive; negative | carcinogen call (Species: Rat, Strain/Sex: Crl:CD(SD)BR/Female (60/Group), Route: Oral, Dose: 0, 0.1, 1.0, 300 reduced to 250 at wk 22 and then to 200 ppm at wk 66 of 94.9% of isazophos in diet for 24 mo, study dur, Dose: 0, 0.1, 1.0, 300 reduced to 250 at wk 22 and then to 200 ppm at wk 66 of 94.9% of isazophos in diet for 24 mo, study dur): inactive; negative | carcinogen call (Species: Rat, Strain/Sex: Crl:CD(SD)BR/Male (60/Group), Route: Oral, Dose: 0, 0.1, 1.0, 300 ppm of 94.9% of isazophos in diet for 24 mo, study duration 24 mo, Dose: 0, 0.1, 1.0, 300 ppm of 94.9% of isazophos in diet for 24 mo, study duration 24 mo): inactive; negative

CN(C)c1ccc(C(=C2C=CC(=[N+](C)C)C=C2)c2c(O)c(S(=O)(=O)[O-])cc3cc(S(=O)(=O)O)ccc23)cc1
carcinogen call (Species: MOUSE, Strain/Sex: CD-1/FEMALE, Route: ORAL, Dose: 0, 0.033, 0.33, 0.66% IN DIET TO PUPS OF PARENTS GIVEN THE SAME DIETARY DOSES FOR 9 WK PRIOR TO MATING. FROM 2 TO 5 WK O, Dose: 0, 0.033, 0.33, 0.66% IN DIET TO PUPS OF PARENTS GIVEN THE SAME DIETARY DOSES FOR 9 WK PRIOR TO MATING. FROM 2 TO 5 WK O): inactive; negative | carcinogen call (Species: MOUSE, Strain/Sex: CD-1/MALE, Route: ORAL, Dose: 0, 0.033, 0.33, 0.66% IN DIET TO PUPS OF PARENTS GIVEN THE SAME DIETARY DOSES FOR 9 WK PRIOR TO MATING. FROM 2 TO 5 WK O, Dose: 0, 0.033, 0.33, 0.66% IN DIET TO PUPS OF PARENTS GIVEN THE SAME DIETARY DOSES FOR 9 WK PRIOR TO MATING. FROM 2 TO 5 WK O): inactive; negative

N#CCCC(Br)(C#N)CBr (stereo not drawn)
carcinogen call (Species: Mouse, Strain/Sex: B6C3F1/Female (50/Group), Route: Dermal, Dose: 0, 0.6, 2, 6 mg/kg in 95% ethanol on clipped area of skin 5 d/wk for 2 yr, Dose: 0, 0.6, 2, 6 mg/kg in 95% ethanol on clipped area of skin 5 d/wk for 2 yr): inactive; negative | carcinogen call (Species: Mouse, Strain/Sex: B6C3F1/Male (50/Group), Route: Dermal, Dose: 0, 0.6, 2, 6 mg/kg in 95% ethanol on clipped area of skin 5 d/wk for 2 yr, Dose: 0, 0.6, 2, 6 mg/kg in 95% ethanol on clipped area of skin 5 d/wk for 2 yr): inactive; negative | carcinogen call (Species: Rat, Strain/Sex: F344/N / Female (50/Group), Route: Dermal, Dose: 0, 2, 6, 18 mg/kg in 95% ethanol on clipped area of skin 5 d/wk for 2 yr, Dose: 0, 2, 6, 18 mg/kg in 95% ethanol on clipped area of skin 5 d/wk for 2 yr): inactive; negative | carcinogen call (Species: Rat, Strain/Sex: F344/N / Male (50/Group), Route: Dermal, Dose: 0, 2, 6, 18 mg/kg in 95% ethanol on clipped area of skin 5 d/wk for 2 yr, Dose: 0, 2, 6, 18 mg/kg in 95% ethanol on clipped area of skin 5 d/wk for 2 yr): inactive; negative

Nc1nc(=S)c2ncn([C@H]3C[C@H](O)[C@@H](CO)O3)c2[nH]1
carcinogen call (Species: RAT, Strain/Sex: SPRAGUE-DAWLEY/FEMALE, Route: INTRAPERITONEAL, Dose: 0, 3.5, 7 MG/KG FOR 52 WK (STUDY DURATION: 78 WK), Dose: 0, 3.5, 7 MG/KG FOR 52 WK (STUDY DURATION: 78 WK), Tumor Site: Type of Lesion: EAR (CANAL): CARCINOMA, NOS OR SQUAMOUS CELL CARCINOMA): active; positive | carcinogen call (Species: RAT, Strain/Sex: SPRAGUE-DAWLEY/MALE, Route: INTRAPERITONEAL, Dose: 0, 3.5, 7 MG/KG FOR 52 WK (STUDY DURATION: 78 WK), Dose: 0, 3.5, 7 MG/KG FOR 52 WK (STUDY DURATION: 78 WK), Tumor Site: Type of Lesion: EAR (CANAL): CARCINOMA OR SQUAMOUS CELL CARCINOMA): equivocal

[Be]=[O]
carcinogen call (Species: RABBIT, Route: INTRAVENOUS, INTRAMEDULLARY, Tumor Site: Type of Lesion: BONE: OSTEOSARCOMA): active; positive
